According to patent publication US4452778A, “Synergistic antibacterial compositions and method of treatment of infections caused by multiple antibiotic-resistant organisms” (Eli Lilly and Company, priority 1981, dated 1984):
Read-outs that look alike come from different tables or passages of the source.

Assays:
Pseudomonas aeruginosa = assay: Checkerboard broth dilution synergy study (mic); type: cell-based; details: for MIC: Pseudomonas aeruginosa, read-out: mic, drug alone
Proteus mirabilis = assay: Checkerboard broth dilution synergy study (mic); type: cell-based; details: Table II, strain Allen
Serratia marcescens = assay: Checkerboard broth dilution synergy study (mic); type: cell-based; details: for MIC: Serratia marcescens, read-out: mic, drug alone
Proteus vulgaris = assay: Checkerboard broth dilution synergy study (mic); type: cell-based; details: Table II; for MIC: Proteus vulgaris, read-out: mic, drug alone
clinical = details: in vivo, iv, mean serum concentration
Acinetobacter sp. = assay: Checkerboard broth dilution synergy study (mic); type: cell-based; details: for MIC: Acinetobacter, read-out: mic, drug alone

Q: Which MIC (Pseudomonas aeruginosa; Table II, strain 84) does the source give for COC1(NC(=O)C(C(=O)O)c2ccc(O)cc2)C(=O)N2C(C(=O)O)=C(CSc3nnnn3C)COC21 (stereo not drawn) [1-oxa compound I, moxalactam] here?
A: The MIC was 16 µg/mL.

Q: What about the MIC (Pseudomonas aeruginosa; Table II, strain 366) of the same compound?
A: The MIC was 16 µg/mL.

Q: What about the MIC (Pseudomonas aeruginosa; Table II, strain 424) of the same compound?
A: The MIC was 8 µg/mL.

Q: What about the MIC (Pseudomonas aeruginosa; Table II, strain 447) of the same compound?
A: The MIC was 32 µg/mL.

Q: And the MIC (Pseudomonas aeruginosa; Table II, strain 1484)?
A: Its MIC is 64 µg/mL.

Q: And the MIC (Pseudomonas aeruginosa; Table II, strain Davis)?
A: The MIC was greater than 64 µg/mL.

Q: What about the MIC (Pseudomonas aeruginosa; Table III, isolate 316-2) of the same compound?
A: Its MIC is 8 µg/mL.

Q: What about the MIC (Pseudomonas aeruginosa; Table III, isolate 362) of the same compound?
A: The MIC was 32 µg/mL.

Q: What about the MIC (Pseudomonas aeruginosa; Table III, isolate 363) of the same compound?
A: Its MIC is 32 µg/mL.

Q: What about the MIC (Pseudomonas aeruginosa; Table III, isolate 610) of the same compound?
A: The MIC was greater than 64 µg/mL.

Q: And the MIC (Pseudomonas aeruginosa; Table III, isolate Brownlee)?
A: Its MIC is 32 µg/mL.

Q: What about the “mic of each drug in combination I + P” value (Pseudomonas aeruginosa; Table II, strain 84) of the same compound?
A: Its value is 4 µg/mL.

Q: And the “mic of each drug in combination I + T” value (Pseudomonas aeruginosa; Table II, strain 84)?
A: The value was 2 µg/mL.

Q: And the “mic of each drug in combination I + P” value (Pseudomonas aeruginosa; Table II, strain 366)?
A: The value was 8 µg/mL.

Q: And the “mic of each drug in combination I + T” value (Pseudomonas aeruginosa; Table II, strain 366)?
A: The value was 0.5 µg/mL.

Q: What about the “mic of each drug in combination I + P” value (Pseudomonas aeruginosa; Table II, strain 424) of the same compound?
A: Its value is 2 µg/mL.

Q: And the “mic of each drug in combination I + T” value (Pseudomonas aeruginosa; Table II, strain 424)?
A: The value was 2 µg/mL.

Q: What about the “mic of each drug in combination I + P” value (Pseudomonas aeruginosa; Table II, strain 447) of the same compound?
A: Its value is 4 µg/mL.

Q: And the “mic of each drug in combination I + T” value (Pseudomonas aeruginosa; Table II, strain 447)?
A: Its value is less than 0.5 µg/mL.

Q: And the “mic of each drug in combination I + P” value (Pseudomonas aeruginosa; Table II, strain 1484)?
A: The value was 16 µg/mL.

Q: What about the “mic of each drug in combination I + T” value (Pseudomonas aeruginosa; Table II, strain 1484) of the same compound?
A: Its value is 4 µg/mL.

Q: And the “mic of each drug in combination I + P” value (Pseudomonas aeruginosa; Table II, strain Davis)?
A: Its value is 8 µg/mL.

Q: And the “mic of each drug in combination I + T” value (Pseudomonas aeruginosa; Table II, strain Davis)?
A: Its value is 2 µg/mL.

Q: What about the “mic of each drug in combination I + A” value (Pseudomonas aeruginosa; Table III, isolate 316-2) of the same compound?
A: The value was 4 µg/mL.

Q: And the “mic of each drug in combination I + A” value (Pseudomonas aeruginosa; Table III, isolate 362)?
A: The value was 4 µg/mL.

Q: What about the “mic of each drug in combination I + A” value (Pseudomonas aeruginosa; Table III, isolate 363) of the same compound?
A: Its value is 1 µg/mL.

Q: What about the “mic of each drug in combination I + A” value (Pseudomonas aeruginosa; Table III, isolate 610) of the same compound?
A: Its value is 0.6 µg/mL.

Q: And the “mic of each drug in combination I + A” value (Pseudomonas aeruginosa; Table III, isolate Brownlee)?
A: The value was 1 µg/mL.

Q: And the MIC (Proteus mirabilis; Proteus mirabilis, read-out: mic, drug alone)?
A: The MIC was 0.06 µg/mL.

Q: What about the “mic of each drug in combination I + T” value (Proteus mirabilis) of the same compound?
A: The value was less than 0.12 µg/mL.

Q: And the MIC (Serratia marcescens; Table II, strain 100)?
A: The MIC was 0.25 µg/mL.

Q: What about the MIC (Serratia marcescens; Table II, strain 302-2) of the same compound?
A: The MIC was 1 µg/mL.

Q: And the MIC (Serratia marcescens; Table II, strain 796)?
A: The MIC was 8 µg/mL.

Q: And the MIC (Serratia marcescens; Table II, strain 14142)?
A: The MIC was 1 µg/mL.

Q: And the MIC (Serratia marcescens; Table II, strain Townsend)?
A: The MIC was 4 µg/mL.

Q: And the MIC (Serratia marcescens; Table III, isolate 463-2)?
A: The MIC was 8 µg/mL.

Q: What about the MIC (Serratia marcescens; Table III, isolate 606) of the same compound?
A: The MIC was 4 µg/mL.

Q: And the MIC (Serratia marcescens; Table III, isolate 1414)?
A: The MIC was 1 µg/mL.

Q: And the MIC (Serratia marcescens; Table III, isolate B377)?
A: Its MIC is 8 µg/mL.

Q: And the MIC (Serratia marcescens; Table III, isolate Ziegler)?
A: Its MIC is 4 µg/mL.

Q: What about the “mic of each drug in combination I + P” value (Serratia marcescens; Table II, strain 100) of the same compound?
A: Its value is 0.12 µg/mL.

Q: What about the “mic of each drug in combination I + T” value (Serratia marcescens; Table II, strain 100) of the same compound?
A: The value was 0.12 µg/mL.

Q: What about the “mic of each drug in combination I + P” value (Serratia marcescens; Table II, strain 302-2) of the same compound?
A: The value was 0.12 µg/mL.

Q: What about the “mic of each drug in combination I + T” value (Serratia marcescens; Table II, strain 302-2) of the same compound?
A: Its value is 0.12 µg/mL.

Q: What about the “mic of each drug in combination I + P” value (Serratia marcescens; Table II, strain 796) of the same compound?
A: The value was 2 µg/mL.

Q: What about the “mic of each drug in combination I + T” value (Serratia marcescens; Table II, strain 796) of the same compound?
A: Its value is 2 µg/mL.

Q: And the “mic of each drug in combination I + P” value (Serratia marcescens; Table II, strain 14142)?
A: The value was 0.12 µg/mL.

Q: What about the “mic of each drug in combination I + T” value (Serratia marcescens; Table II, strain 14142) of the same compound?
A: The value was 0.25 µg/mL.

Q: What about the “mic of each drug in combination I + P” value (Serratia marcescens; Table II, strain Townsend) of the same compound?
A: The value was 2 µg/mL.

Q: And the “mic of each drug in combination I + T” value (Serratia marcescens; Table II, strain Townsend)?
A: The value was 1 µg/mL.

Q: And the “mic of each drug in combination I + A” value (Serratia marcescens; Table III, isolate 463-2)?
A: The value was less than 0.06 µg/mL.

Q: What about the “mic of each drug in combination I + A” value (Serratia marcescens; Table III, isolate 606) of the same compound?
A: Its value is 0.5 µg/mL.

Q: And the “mic of each drug in combination I + A” value (Serratia marcescens; Table III, isolate 1414)?
A: Its value is 0.06 µg/mL.

Q: What about the “mic of each drug in combination I + A” value (Serratia marcescens; Table III, isolate B377) of the same compound?
A: Its value is 0.12 µg/mL.

Q: And the “mic of each drug in combination I + A” value (Serratia marcescens; Table III, isolate Ziegler)?
A: The value was 0.06 µg/mL.

Q: What about the MIC (Proteus vulgaris; strain 363) of the same compound?
A: The MIC was 0.12 µg/mL.

Q: What about the MIC (Proteus vulgaris; strain Shide) of the same compound?
A: The MIC was 0.06 µg/mL.

Q: And the “mic of each drug in combination I + T” value (Proteus vulgaris; strain 363)?
A: Its value is less than 0.12 µg/mL.

Q: What about the “mic of each drug in combination I + T” value (Proteus vulgaris; strain Shide) of the same compound?
A: The value was less than 0.12 µg/mL.

Q: What about the concentration at 11 h (clinical) of the same compound?
A: The concentration at 11 h was 1200 ng/mL.

Q: What about the MIC (Acinetobacter sp.; Table II, strain 28-1) of the same compound?
A: The MIC was 16 µg/mL.

Q: What about the MIC (Acinetobacter sp.; Table II, strain 28-2) of the same compound?
A: The MIC was 16 µg/mL.

Q: What about the MIC (Acinetobacter sp.; Table II, strain 106) of the same compound?
A: The MIC was 8 µg/mL.

Q: What about the MIC (Acinetobacter sp.; Table II, strain 107) of the same compound?
A: Its MIC is 32 µg/mL.

Q: And the MIC (Acinetobacter sp.; Table II, strain 109)?
A: The MIC was 16 µg/mL.

Q: What about the MIC (Acinetobacter sp.; Table III, isolate 28-1) of the same compound?
A: Its MIC is 16 µg/mL.

Q: And the MIC (Acinetobacter sp.; Table III, isolate 28-2)?
A: The MIC was 16 µg/mL.

Q: And the MIC (Acinetobacter sp.; Table III, isolate 106)?
A: The MIC was 8 µg/mL.

Q: What about the MIC (Acinetobacter sp.; Table III, isolate 107) of the same compound?
A: The MIC was 32 µg/mL.

Q: And the MIC (Acinetobacter sp.; Table III, isolate 109)?
A: The MIC was 16 µg/mL.

Q: What about the “mic of each drug in combination I + T” value (Acinetobacter sp.; Table II, strain 28-1) of the same compound?
A: Its value is 0.6 µg/mL.

Q: What about the “mic of each drug in combination I + T” value (Acinetobacter sp.; Table II, strain 28-2) of the same compound?
A: Its value is 2 µg/mL.
